How the values were obtained:
CCRF-CEM cells = experiment: Mitochondrial membrane potential (MMP), JC-1 staining, flow cytometry; format: cell-based, human; conditions: 10 µM, 24 h
Protocol: The modification of the MMP as well as the ROS levels after the application of BAL, and flavonolignan 2 at ¼ IC50, ½ IC50, IC50, and 2 × IC50 to CCRF-CEM cells (1 × 10^6) was performed by flow cytometry. DMSO was used as solvent control while valinomycin served as a positive control. The cells were incubated for 24 h and further stained for 30 min with JC-1 [45] and measured (1 × 10^4 cells) in an LSR-Fortessa FACS analyzer (Becton–Dickinson). For ROS determination, CCEF-CEM cells were similarly treated BAL, the flavonolignan 2, hydrogen peroxide (H2O2; positive control), DMSO (solvent control) as in the MMP analysis, then incubated for 24 h. They were further stained with H2DCFH-DA and measured (1 × 10^4 cells) in an LSR-Fortessa FACS analyzer.

CCRF-CEM leukemia cells = experiment: Resazurin reduction assay (RRA), cytotoxicity; format: cell-based; conditions: Homo sapiens, 72 h
Description: (§1) In this work, 9 cancer cell lines with various drug resistance patterns as well as AML12 hepatocytes as normal control cell line were used. […] The AML12 hepatocytes were used for the comparison of the activities of the samples with HepG2 [40]. […] The RPMI-1640 medium was used for the culture of CCRF-CEM and CEM/ADR5000 cells whilst DMEM medium was used for carcinoma cells. The culture media were supplemented (complete medium) with 10% fetal bovine serum and 1% penicillin/streptomycin (Invitrogen, Eggenstein, Germany). […] To maintain the resistance phenotype of the resistant carcinoma cell lines such as MDA-MB-231/BCRP and HCT116 p53^−/−, and U87MG.ΔEGFR cells, the complete DMEM medium containing geneticin at 800 ng/ml and 400 µg/ml, respectively were used [41, 42].
(§2) Cells were cultured in a standard condition consisted of a humidified 5% CO2 atmosphere and an incubation temperature of 37 °C. The tested concentration ranges were 0.63—80 µg/mL for the botanicals and 0.78—100 µM for phytochemicals. The incubation time of the treated cells was 72 h, and the fluorescence was measured with Infinite M2000 Pro™ plate reader (Tecan, Crailsheim, Germany). The wavelengths used were 544 nm for the excitation and 590 nm for the emission. […] The degree of resistance (D.R.) was set as the ratio of the IC50 values of samples in the resistant cell line vs that of corresponding sensitive cell line. The selectivity index (S.I.) was the ratio of the IC50 value of AML12 hepatocytes vs. that of HepG2 cells [13, 48].

MDA-MB-231-pcDNA cells = experiment: Resazurin reduction assay (RRA), cytotoxicity; format: cell-based; conditions: Homo sapiens, 72 h
Description: as §1, §2

CEM/ADR5000 cells = experiment: Resazurin reduction assay (RRA), cytotoxicity; format: cell-based, human; conditions: for IC50: Homo sapiens, CEM/ADR5000, 72 h; for Degree of resistance (D.R.): ratio of IC50 CEM/ADR5000 vs CCRF-CEM
Protocol: (§3) The RPMI-1640 medium was used for the culture of CCRF-CEM and CEM/ADR5000 cells whilst DMEM medium was used for carcinoma cells. The culture media were supplemented (complete medium) with 10% fetal bovine serum and 1% penicillin/streptomycin (Invitrogen, Eggenstein, Germany). […] To maintain the resistance phenotype of the resistant carcinoma cell lines such as MDA-MB-231/BCRP and HCT116 p53^−/−, and U87MG.ΔEGFR cells, the complete DMEM medium containing geneticin at 800 ng/ml and 400 µg/ml, respectively were used [41, 42].
as §2

U87MG.ΔEGFR cells = experiment: Resazurin reduction assay (RRA), cytotoxicity; format: cell-based, human; conditions: for IC50: Homo sapiens, U87MG.ΔEGFR, 72 h; for Degree of resistance (D.R.): ratio of IC50 U87.MGΔEGFR vs U87.MG
Protocol: as §3, §2

U87MG cells = experiment: Resazurin reduction assay (RRA), cytotoxicity; format: cell-based; conditions: Homo sapiens, U-87 MG, 72 h
Description: as §1, §2

HepG2 cells = experiment: Resazurin reduction assay (RRA), cytotoxicity; format: cell-based; conditions: Homo sapiens, HepG2, 72 h
Description: as §1, §2

MDA-MB-231-BCRP cells = experiment: Resazurin reduction assay (RRA), cytotoxicity; conditions: for IC50: Homo sapiens, MDA-MB-231/BCRP, 72 h; for Degree of resistance (D.R.): ratio of IC50 MDA-MB-231-BCRP vs MDA-MB-231-pcDNA
Protocol: as §3, §2

HCT116 p53−/− cells = experiment: Resazurin reduction assay (RRA), cytotoxicity; format: cell-based, human; conditions: for IC50: Homo sapiens, HCT-116, HCT116 p53−/−, 72 h; for Degree of resistance (D.R.): ratio of IC50 HCT116 p53−/− vs HCT116 p53+/+
Protocol: as §3, §2

AML12 hepatocytes = experiment: Resazurin reduction assay (RRA), cytotoxicity on normal hepatocytes; format: cell-based; conditions: for IC50: Mus musculus, AML12 normal hepatocytes, 72 h; for Selectivity index (S.I.): ratio of IC50 in AML12 vs IC50 in HepG2 cells
Protocol: as §3, §2

HCT116 p53+/+ cells = experiment: Resazurin reduction assay (RRA), cytotoxicity; format: cell-based; conditions: Homo sapiens, HCT-116, 72 h
Description: as §1, §2

PC-3 = system: PC-3; set-up: method as in PMID 31816856; conditions: on PC-3 ref 30; cited from earlier work

Compound | IC50 (CCRF-CEM leukemia cells) [µM] | Degree of resistance (D.R.) (CEM/ADR5000 cells) | Degree of resistance (D.R.) (U87MG.ΔEGFR cells) | IC50 (MDA-MB-231-BCRP cells) | Degree of resistance (D.R.) (MDA-MB-231-BCRP cells) | Degree of resistance (D.R.) (HCT116 p53−/− cells) | IC50 (MDA-MB-231-pcDNA cells) [µM] | IC50 (HCT116 p53+/+ cells) [µM] | IC50 (CEM/ADR5000 cells) [µM] | IC50 (U87MG.ΔEGFR cells) [µM] | IC50 (U87MG cells) [µM] | IC50 (HepG2 cells) [µM] | IC50 (HCT116 p53−/− cells) [µM] | IC50 (AML12 hepatocytes) [µM] | Selectivity index (S.I.) (AML12 hepatocytes) | further results
CC(C)[C@@H]1NC(=O)[C@H](C)OC(=O)[C@@H](C(C)C)NC(=O)[C@@H](C(C)C)OC(=O)[C@H](C(C)C)NC(=O)[C@H](C)OC(=O)[C@@H](C(C)C)NC(=O)[C@@H](C(C)C)OC(=O)[C@H](C(C)C)NC(=O)[C@H](C)OC(=O)[C@@H](C(C)C)NC(=O)[C@@H](C(C)C)OC1=O [valinomycin, reference compound] | – | – | – | – | – | – | – | – | – | – | – | – | – | – | – | cells with MMP disrupted (CCRF-CEM cells): 16.8%; cells with MMP loosed (CCRF-CEM cells): 44.5%; healthy cells (intact MMP) (CCRF-CEM cells): 38.8%
COc1cccc2c1C(=O)c1c(O)c3c(c(O)c1C2=O)C[C@@](O)(C(=O)CO)C[C@@H]3O[C@H]1C[C@H](N)[C@H](O)[C@H](C)O1 [Doxorubicin, reference compound] | 0.02 | 6,683.00 | 3.79 | 0.79 ± 0.08 µg/mL | 6.14 | 3.73 | – | – | – | – | – | – | – | – | – | IC50 (CCRF-CEM leukemia cells; Table 2): 0.02 µg/mL; IC50 (MDA-MB-231-pcDNA cells; Table 2): 0.13 ± 0.01 µg/mL; IC50 (CEM/ADR5000 cells; Table 2): 123 ± 10.9 µg/mL; IC50 (U87MG.ΔEGFR cells; Table 2): 0.98 ± 0.07 µg/mL; IC50 (U87MG cells; Table 2): 0.26 ± 0.03 µg/mL; IC50 (HepG2 cells; Table 2): 4.56 ± 0.48 µg/mL; IC50 (HCT116 p53−/− cells; Table 2): 1.78 ± 0.08 µg/mL; IC50 (AML12 hepatocytes; Table 2): > 50 µg/mL
C[C@@H](O)C1CCC2C3CC=C4C[C@@H](O[C@@H]5OC[C@H](O)[C@H](O)[C@H]5O[C@@H]5O[C@H](CO)[C@@H](O)[C@H](O)[C@H]5O)CC[C@]4(C)C3CC[C@@]21C (stereo partly drawn) [Compound 4, (20R)-O-(3)-β-D-glucopyranosyl(1 → 2)-α-L-arabinopyranosyl-pregn-5-en-3β,20-diol] | 32 ± 2.16 | > 3.13 | 1.00 | > 100 µM | – | < 0.32 | > 100 | > 100 | > 100 | 28.3 ± 1.66 | 28.3 ± 2.08 | 31.2 ± 2.11 | 32.2 ± 2.37 | > 100 | > 3.21 | melting point: 258 to 260 °C
CC(C)=CC(=O)c1c[nH]c2ccccc12 [Compound 1, 3, (3-(3-methyl-1-oxo-2-butenyl))1H indole] | 19.1 ± 1.56 | 1.68 | 1.50 | 47.5 ± 2.75 µM | 3.54 | 1.53 | 13.4 ± 0.93 | 23.9 ± 2.32 | 32 ± 2.05 | 36.3 ± 3.01 | 24.2 ± 1.16 | 39.9 ± 2.84 | 36.4 ± 3.04 | > 100 | > 2.50 | –
bruceacanthinones A | – | – | – | – | – | – | – | – | – | – | – | – | – | – | – | IC50 (PC-3): 196 µM

Reference: PMC9930359, “Cytotoxicity of the methanol extracts and compounds of Brucea antidysenterica (Simaroubaceae) towards multifactorial drug-resistant human cancer cell lines” (BMC Complementary Medicine and Therapies, 2023)
